Assay type in all cases: cell-based
Test [1] deals with T1, human NMUR1 receptor (Homo sapiens, UniProt Q9HB89).
T1 construct: expressed in transfected cells; host or cells: CHO-K1
T1 sequence (Q9HB89 1-426): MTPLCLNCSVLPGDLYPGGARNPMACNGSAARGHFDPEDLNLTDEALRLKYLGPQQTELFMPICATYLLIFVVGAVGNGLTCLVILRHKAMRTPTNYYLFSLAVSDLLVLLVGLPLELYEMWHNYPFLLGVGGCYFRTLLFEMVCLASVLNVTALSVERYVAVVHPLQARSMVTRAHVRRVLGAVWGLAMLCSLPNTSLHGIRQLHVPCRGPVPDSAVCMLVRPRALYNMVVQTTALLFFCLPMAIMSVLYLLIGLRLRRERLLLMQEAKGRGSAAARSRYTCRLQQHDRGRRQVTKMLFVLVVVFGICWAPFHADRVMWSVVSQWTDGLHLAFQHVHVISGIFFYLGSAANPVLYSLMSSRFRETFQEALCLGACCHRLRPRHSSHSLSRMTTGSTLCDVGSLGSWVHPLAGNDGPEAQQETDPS
The test is described as follows: IP1 Gq HTRF assay, activation of human NMUR1 in buffer. The following applies: CHO-K1 cells expressing human NMUR1, stimulation buffer with 0.1% BSA; read-out: EC50 (hNMUR1) buffer. The text has this:
(§1) Example 3: IP1 Gq HTRF Assay Activation of Human NMUR2 or Human NMUR1 in Buffer Application of the Homogenous Time Resolved Fluorescence (HTRF) technology optimized for Gq coupled receptors has been described in detail in the Cisbio IP-One Gq kit manual. In brief, a FRET signal (FRET: fluorescence resonance energy transfer) is generated between the donor label of an IP-One antibody (anti-IP1-Tb) and the acceptor label of a tagged IP-One (IP1-d2). Agonism of a Gq coupled receptor increases intracellular IP-One, which competes with labeled IP-One and leads to a reduction of the FRET signal. Frozen stocks of CHO-K1 cells stably expressing the human NMUR1 or NMUR2 receptor were thawed and 5000 cells were seeded in culture medium (HAM'S F12, 10% FCS) into each well of a 384-well assay plate. After seeding, cells were incubated for 24 h in a humidified incubator at 37° C. and 5% CO2. Next, cells were washed once with 50 μL of wash buffer (20 mM Hepes, 1×HBSS, pH 7.4), followed by addition of either 10 μL of stimulation buffer (20 mM Hepes, 1×HBSS, 50 mM LiCl, 0.1% BSA, pH 7.4). Peptide agonists to be tested were dissolved in 100% DMSO and pre-diluted in stimulation buffer at a suitable concentration range for an 8 pt dose-response curve. 5 μL of peptide pre-dilution were then added to each well, followed by another 5 μL of stimulation buffer to give a final concentration of 1% DMSO. Samples were subsequently incubated for 1 hour in a humidified incubator at 37° C. After addition of 5 μL each of IP1-d2 and anti-IP1-Tb, samples were incubated for another 1 hour at room temperature and FRET signals (ratio 665 nm/620 nm) were measured. EC50 values were calculated by nonlinear regression using a 4-parameter sigmoidal curve fit.
(Time-resolved FRET reads energy transfer from a long-lived donor to a nearby acceptor.)

Test [2] addresses T2, human NMUR2 receptor (Homo sapiens, UniProt Q9GZQ4). The test is described as follows: IP1 Gq HTRF assay, activation of human NMUR2 in buffer. On the set-up: expressed in transfected cells; host or cells: CHO-K1. The note with it: CHO-K1 cells expressing human NMUR2, stimulation buffer with 0.1% BSA; read-out: EC50 (hNMUR2) buffer.
From the text: as §1

The target of test [3] is T2, human NMUR2 receptor. In words: IP1 Gq HTRF assay, activation of human NMUR2 in human plasma. The following applies: CHO-K1 cells expressing human NMUR2, 100% human plasma; read-out: EC50 (hNMUR2) human plasma. On the set-up: expressed in transfected cells; host or cells: CHO-K1. The text has this:
Example 4: IP1 Gq HTRF Assay Activation of Human NMUR2 in Human Plasma Application of the Homogenous Time Resolved Fluorescence (HTRF) technology optimized for Gq coupled receptors has been described in detail in the Cisbio IP-One Gq kit manual. In brief, a FRET signal is generated between the donor label of an IP-One antibody (anti-IP1-Tb) and the acceptor label of a tagged IP-One (IP1-d2). Agonism of a Gq coupled receptor increases intracellular IP-One, which competes with labeled IP-One and leads to a reduction of the FRET signal. Frozen stocks of CHO-K1 cells stably expressing the human NMUR1 receptor or human NMUR2 receptor were thawed and 5000 cells were seeded in culture medium (HAM'S F12, 10% FCS) into each well of a 384-well assay plate. After seeding, cells were incubated for 24 h in a humidified incubator at 37° C. and 5% CO2. Next, cells were washed once with […] of wash buffer (20 mM Hepes, 1×HBSS, pH 7.4), followed by addition of […] (100% human plasma, 50 mM LiCl). Peptide agonists to be tested were dissolved in 100% DMSO and pre-diluted in plasma at a suitable concentration range for an 8 pt dose-response curve. 5 μL of peptide pre-dilution were then added to each well, followed by another 5 μL of plasma to give a final concentration of 1% DMSO. Samples were subsequently incubated for 1 hour in a humidified incubator at 37° C. The plasma solution was replaced by 20 μL of stimulation buffer. After addition of 5 μL each of IP1-d2 and anti-IP1-Tb, samples were incubated for another 1 hour at room temperature and FRET signals (ratio 665 nm/620 nm) were measured. EC50 values were calculated by nonlinear regression using a 4-parameter sigmoidal curve fit.

SMILES strings stand for the structures. Residues, ends and D or L forms follow the SMILES beside them.

T2 sequence (Q9GZQ4 whole entry): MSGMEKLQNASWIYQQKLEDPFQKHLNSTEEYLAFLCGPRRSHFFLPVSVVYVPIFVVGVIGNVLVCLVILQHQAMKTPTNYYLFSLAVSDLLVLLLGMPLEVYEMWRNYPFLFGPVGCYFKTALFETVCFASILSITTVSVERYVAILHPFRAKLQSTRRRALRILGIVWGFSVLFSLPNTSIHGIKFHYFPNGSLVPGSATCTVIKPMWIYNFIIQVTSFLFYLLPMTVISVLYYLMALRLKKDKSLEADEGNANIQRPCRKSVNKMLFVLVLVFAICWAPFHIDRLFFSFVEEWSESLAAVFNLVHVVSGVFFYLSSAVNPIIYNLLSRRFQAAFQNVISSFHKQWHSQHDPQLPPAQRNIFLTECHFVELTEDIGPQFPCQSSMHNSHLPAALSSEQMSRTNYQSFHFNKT

One may read the EC50 as the midpoint of the concentration-response curve. Consider `CCCC[C@H](NC(=O)[C@H](CC(C)C)N(C)C(=O)[C@H](Cc1ccccc1)NC(=O)[C@H](Cc1ccc(O)cc1)NC(=O)CN1CCN(CCNC(=O)CN(C)C(=O)CN(C)C(=O)CN(C)C(=O)CN(C)C(=O)CN(C)C(=O)CN(C)C(=O)CN(C)C(=O)CN(C)C(=O)CN(C)C(=O)CN(C)C(=O)CN(C)C(=O)CN(C)C(=O)CN(C)C(=O)CN(C)C(=O)CN(C)C(=O)CC[C@H](NC(=O)CC[C@H](NC(=O)CC[C@H](NC(=O)CC[C@H](NC(=O)CCCCCCCCCCCCCCCCCCC(=O)O)C(=O)O)C(=O)O)C(=O)O)C(=O)O)CC1)C(=O)N[C@@H](CCCN)C(=O)N(C)[C@@H](C)C(=O)N[C@@H](CCCNC(=N)N)C(=O)NCC(N)=O` [Compound 14, C20DA-gGlu4-Sar15-AEPipAc-Tyr-Phe-NMeLeu-Nle-Orn-NMeAla-Arg-Gly-NH2] (HELM PEPTIDE1{[O=C(O)CCCCCCCCCCCCCCCCCCC(=O)[*:2]].[gGlu].[gGlu].[gGlu].[gGlu].[Sar].[Sar].[Sar].[Sar].[Sar].[Sar].[Sar].[Sar].[Sar].[Sar].[Sar].[Sar].[Sar].[Sar].[Sar].[O=C(CN1CCN(CCN[*:1])CC1)[*:2]].Y.F.[meL].[Nle].[Orn].[meA].R.G.[am]}$$$$V2.0), for which the EC50 in test [1] was 1400 nM; in test [2], 2.9 nM; in test [3] it was 10.3 nM.

For `CCCC[C@H](NC(=O)[C@H](CC(C)C)N(C)C(=O)[C@H](Cc1ccccc1)NC(=O)[C@H](Cc1ccc(O)cc1)NC(=O)CN1CCN(CCNC(=O)CN(C)C(=O)CN(C)C(=O)CN(C)C(=O)CN(C)C(=O)CN(C)C(=O)CN(C)C(=O)CN(C)C(=O)CN(C)C(=O)CN(C)C(=O)CN(C)C(=O)CN(C)C(=O)CN(C)C(=O)CN(C)C(=O)CN(C)C(=O)CN(C)C(=O)CC[C@H](NC(=O)CC[C@H](NC(=O)CC[C@H](NC(=O)CC[C@H](NC(=O)CCCCCCCCCCCCCCCCCCC(=O)O)C(=O)O)C(=O)O)C(=O)O)C(=O)O)CC1)C(=O)N[C@@H](CCN)C(=O)N(C)[C@@H](C)C(=O)N[C@@H](CCCNC(=N)N)C(=O)NCC(N)=O` [Compound 16, C20DA-gGlu4-Sar15-AEPipAc-Tyr-Phe-NMeLeu-Nle-Dbu-NMeAla-Arg-Gly-NH2] (HELM PEPTIDE1{[O=C(O)CCCCCCCCCCCCCCCCCCC(=O)[*:2]].[gGlu].[gGlu].[gGlu].[gGlu].[Sar].[Sar].[Sar].[Sar].[Sar].[Sar].[Sar].[Sar].[Sar].[Sar].[Sar].[Sar].[Sar].[Sar].[Sar].[O=C(CN1CCN(CCN[*:1])CC1)[*:2]].Y.F.[meL].[Nle].[Dab].[meA].R.G.[am]}$$$$V2.0), the EC50 was over 1000 nM in test [1], 3.3 nM in test [2] and 11 nM in test [3].

With `CCCC[C@H](NC(=O)[C@H](CC(C)C)N(C)C(=O)[C@H](Cc1ccccc1)NC(=O)[C@H](Cc1ccc(O)cc1)NC(=O)CN1CCN(CCNC(=O)CN(C)C(=O)CN(C)C(=O)CN(C)C(=O)CN(C)C(=O)CN(C)C(=O)CN(C)C(=O)CN(C)C(=O)CN(C)C(=O)CN(C)C(=O)CN(C)C(=O)CN(C)C(=O)CN(C)C(=O)CN(C)C(=O)CN(C)C(=O)CN(C)C(=O)CC[C@H](NC(=O)CC[C@H](NC(=O)CC[C@H](NC(=O)CC[C@H](NC(=O)CCCCCCCCCCCCCCCCCCC(=O)O)C(=O)O)C(=O)O)C(=O)O)C(=O)O)CC1)C(=O)N[C@@H](CCCCN)C(=O)N(C)[C@@H](C)C(=O)N[C@@H](CCCNC(=N)N)C(=O)NCC(N)=O` [Compound 18, C20DA-gGlu4-Sar15-AEPipAc-Tyr-Phe-NMeLeu-Nle-Lys-NMeAla-Arg-Gly-NH2] (HELM PEPTIDE1{[O=C(O)CCCCCCCCCCCCCCCCCCC(=O)[*:2]].[gGlu].[gGlu].[gGlu].[gGlu].[Sar].[Sar].[Sar].[Sar].[Sar].[Sar].[Sar].[Sar].[Sar].[Sar].[Sar].[Sar].[Sar].[Sar].[Sar].[O=C(CN1CCN(CCN[*:1])CC1)[*:2]].Y.F.[meL].[Nle].K.[meA].R.G.[am]}$$$$V2.0), the 50% effective concentration (EC50) was over 1000 nM in test [1], 7 nM in test [2] and 34.7 nM in test [3].

Turning to `CCCC[C@H](NC(=O)[C@H](CC(C)C)N(C)C(=O)[C@H](Cc1ccccc1)NC(=O)[C@H](Cc1ccc(O)cc1)NC(=O)CN1CCN(CCNC(=O)CN(C)C(=O)CN(C)C(=O)CN(C)C(=O)CN(C)C(=O)CN(C)C(=O)CN(C)C(=O)CN(C)C(=O)CN(C)C(=O)CN(C)C(=O)CN(C)C(=O)CN(C)C(=O)CN(C)C(=O)CC[C@H](NC(=O)CC[C@H](NC(=O)CC[C@H](NC(=O)CC[C@H](NC(=O)CCCCCCCCCCCCCCCCCCC(=O)O)C(=O)O)C(=O)O)C(=O)O)C(=O)O)CC1)C(=O)N[C@@H](CCCCN)C(=O)N(C)[C@@H](C)C(=O)N[C@@H](CCCNC(=N)N)C(=O)NCC(N)=O` [Compound 19, C20DA-gGlu4-Sar12-AEPipAc-Tyr-Phe-NMeLeu-Nle-Lys-NMeAla-Arg-Gly-NH2], the EC50 is 1400 nM in test [1], 5.7 nM in test [2] and 36.6 nM in test [3].

Consider `CCCC[C@H](NC(=O)[C@H](CC(C)C)N(C)C(=O)[C@H](Cc1ccccc1)NC(=O)[C@H](Cc1ccc(O)cc1)NC(=O)CN1CCN(CCNC(=O)CN(C)C(=O)CN(C)C(=O)CN(C)C(=O)CN(C)C(=O)CN(C)C(=O)CN(C)C(=O)CN(C)C(=O)CN(C)C(=O)CN(C)C(=O)CN(C)C(=O)CN(C)C(=O)CN(C)C(=O)CN(C)C(=O)CN(C)C(=O)CN(C)C(=O)CC[C@H](NC(=O)CC[C@H](NC(=O)CC[C@H](NC(=O)CCCCCCCCCCCCCCCCCCC(=O)O)C(=O)O)C(=O)O)C(=O)O)CC1)C(=O)N[C@@H](CCCN)C(=O)NCC(=O)N[C@@H](CCCNC(=N)N)C(=O)NCC(N)=O` [Compound 29, C20DA-gGlu3-Sar15-AEPipAc-Tyr-Phe-NMeLeu-Nle-Orn-Gly-Arg-Gly-NH2] (HELM PEPTIDE1{[O=C(O)CCCCCCCCCCCCCCCCCCC(=O)[*:2]].[gGlu].[gGlu].[gGlu].[Sar].[Sar].[Sar].[Sar].[Sar].[Sar].[Sar].[Sar].[Sar].[Sar].[Sar].[Sar].[Sar].[Sar].[Sar].[O=C(CN1CCN(CCN[*:1])CC1)[*:2]].Y.F.[meL].[Nle].[Orn].G.R.G.[am]}$$$$V2.0), for which the EC50 in test [1] is over 1000 nM; in test [2], 52 nM; in test [3], 535 nM.

Values taken from US20240279278A1, “NMU RECEPTOR 2 AGONISTS” (Boehringer Ingelheim International GmbH, priority 2023, published 2024).
